Data as given in patent US20190169181A1, “FUMAGILLOL COMPOUNDS AND METHODS OF MAKING AND USING SAME” (Zafgen, Inc., priority 2016, published 2019).
Counter-ions that a name gives are not always drawn.

How the values were obtained:
recombinant human MetAP2 = biological target: T1, recombinant human MetAP2 (Homo sapiens, UniProt P50579); test: Recombinant human MetAP2 enzyme inhibition assay (MAS peptide / amino acid oxidase / Amplex Ultrared readout); assay type: biochemical; conditions: Flag tagged human recombinant MetAP2, 25 minutes at 25° C.
T1 construct: Flag; made in house
Method: Compounds are tested for their capacity to inhibit recombinant human MetAP2 activity using the following assay.
Flag tagged Human recombinant MetAP2 expressed and isolated for use as the enzyme source. 10 mM stock solutions of compounds were prepared in 100% DMSO and further diluted in 100% DMSO required concentration to 1 mM stocks. The stock compound solutions and DMSO vehicle controls were diluted to target final compound concentrations using assay buffer to a final concentration of 50 mM HEPES containing 100 mM NaCl, pH adjusted to 7.5. The MAS peptide was formulated to a 7.5 mM stock in distilled water and prior to use further diluted 1:4. […] 40 μl of enzyme was mixed with 100 μl of MnCl2 then further diluted in assay buffer to a final concentration of 16 μg/ml. To test for compound effect on MetAP2 enzyme activity, 5 μl of test compound, 10 μl of MAS substrate/amino acid oxidase mixture, 10 μl of MetAP2 was added to test wells in a 384 well black plate with blank wells containing no enzyme, replaced with 10 μl of assay buffer. All compounds were tested in duplicate on two occasions on the same day.
The plate was sealed with a TopSeal A cover and mixed briefly on an orbital mixer at 900 rpm. The plate was incubated for a further 25 minutes at 25° C. A 5× stock of Amplex buffer was prepared (0.25 M sodium phosphate, pH 7.4) and stored at 4° C. […] Horse radish peroxidase was diluted in […] of Amplex buffer, 100 μl of this was combined with 50 μl of Amplex Ultrared in […] of 1× Amplex buffer to generate sufficient detection reagent for a 384 well plate. 25 μl detection reagent was added to each well of the test plate, which was re-sealed and mixed briefly on an orbital shaker. The plate was transferred to an Envision Multi-label reader and RFU measured corresponding to excitation 531 nm and emission 595 nm. At the end of the MetAP2 incubation 25 μl Amplex/HRP mixture per well was added and the plate read plate on a plate reader.

[1] = tested on: Diet Induced Obese (DIO) C57BL/6 mice; test: 10 day DIO mouse model, weight loss vs. vehicle; assay type: in vivo; conditions: 240 h; for inhibition in vivo at 0.3 mg/kg: 0.3 mpk sc once a day for 10 days; for inhibition in vivo at 1 mg/kg: 1.0 mpk sc once a day for 10 days
Excerpt: The objective of this study design was to investigate the efficacy of disclosed compounds in a 10 day DIO mouse model. Effects on body weight, food intake, hematology and blood chemistry were the primary readouts of this study design. Male, Diet Induced Obese (DIO) C57BL/6 mice, 19-21 weeks of age (13-15 weeks on high fat diet) were ordered from a certified vendor and upon receipt were housed on irradiated corncob bedding in micro-isolator cages on a 12-hour light-dark cycle (0700-1900) at 68-74° F. and 30-70% humidity. Mice were fed Research Diets D12492 (60% Kcal fat, 20% Kcal carbohydrate and 20% protein) and provided water ad libitum. DIO mice were received and housed in the facility for approximately two weeks prior to the start of test article administration. On Day −4 or −3, mice were randomized into study groups based on body weight and body weights were continued to be recorded daily for the duration of the study. Daily food intake was assessed starting on Study Day −2 by weighing of the food with hopper together to avoid loss of food in transfer.
Compounds were formulated into a 100% DMSO stock (at 9 mg/mL) prior to the start, and further diluted into the target working concentration using the vehicle of 10% DMSO in water. Prior to test article administration, starting on Day −3 a dosing acclimation occurred with all animals receiving a subcutaneous injection of vehicle (10% DMSO) only for 3 days. Starting on Day 1, test compounds or vehicle were administered based on individual body weight, subcutaneously, once a day for 10 days. All mice were sacrificed on Day 11, 24 hours following the final dosing on Day 10. After sacrifice, whole blood was collected and analyzed for hematology and blood chemistry parameters.
Compounds were tested for weight loss vs. vehicle at 0.3 and 1.0 mpk sc (mg per kg animal weight delivered subcutaneously), and the results are shown in Table 2 below.

T1 sequence (P50579 whole entry): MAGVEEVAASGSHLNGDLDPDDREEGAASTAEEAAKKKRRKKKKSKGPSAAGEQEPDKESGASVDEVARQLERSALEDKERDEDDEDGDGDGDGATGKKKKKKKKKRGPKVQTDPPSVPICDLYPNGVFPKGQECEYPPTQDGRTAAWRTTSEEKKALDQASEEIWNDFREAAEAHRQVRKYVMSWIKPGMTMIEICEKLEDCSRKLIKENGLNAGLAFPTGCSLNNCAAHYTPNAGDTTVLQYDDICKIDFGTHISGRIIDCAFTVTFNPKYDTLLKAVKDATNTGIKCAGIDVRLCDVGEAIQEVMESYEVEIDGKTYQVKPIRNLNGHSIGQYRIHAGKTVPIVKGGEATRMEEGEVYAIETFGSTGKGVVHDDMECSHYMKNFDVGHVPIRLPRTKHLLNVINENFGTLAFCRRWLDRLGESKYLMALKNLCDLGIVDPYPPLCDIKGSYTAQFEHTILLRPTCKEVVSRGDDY

SMILES	IC50 (recombinant human MetAP2) [nM]	inhibition in vivo at 0.3 mg/kg [1] [%]	inhibition in vivo at 1 mg/kg [1] [%]
CO[C@@H]1[C@H](OC(=O)N[C@H](c2ncc[nH]2)C(C)C)CC[C@]2(CO2)[C@H]1[C@@]1(C)O[C@@H]1CC=C(C)C [Example 4, (3R,4S,5S,6R)-5-methoxy-4-((2R,3R)-2-methyl-3-(3-methylbut-2-enyl)oxiran-2-yl)-1-oxaspiro[2.5]octan-6-yl (S)-1-(1H-imidazol-2-yl)-2-methylpropylcarbamate]	< 50	3.9	0.7
CO[C@@H]1[C@H](OC(=O)/C=C/c2ccc(OCCN(C)C)cc2)CC[C@]2(CO2)[C@H]1[C@@]1(C)O[C@@H]1CC=C(C)C [A, [(3R,6R,7S,8S)-7-methoxy-8-[(2R,3R)-2-methyl-3-(3-methylbut-2-enyl)oxiran-2-yl]-2-oxaspiro[2.5]octan-6-yl] (E)-3-[4-[2-(dimethylamino)ethoxy]phenyl]prop-2-enoate, reference compound]	–	20	18
CO[C@@H]1[C@H](OC(=O)N[C@H](c2ccc(N3CC(F)(F)C3)nc2)C(C)C)CC[C@]2(CO2)[C@H]1[C@@]1(C)O[C@@H]1CC=C(C)C [Example 25, (3R,4S,5S,6R)-5-methoxy-4-((2R,3R)-2-methyl-3-(3-methylbut-2-enyl)oxiran-2-yl)-1-oxaspiro[2.5]octan-6-yl (S)-1-(6-(3,3-difluoroazetidin-1-yl)pyridin-3-yl)-2-methylpropylcarbamate]	50 to 500	13	–
CO[C@@H]1[C@H](OC(=O)N[C@H](Cc2nnc[nH]2)C(C)C)CC[C@]2(CO2)[C@H]1[C@@]1(C)O[C@@H]1CC=C(C)C [Example 31, (3R,4S,5S,6R)-5-methoxy-4-((2R,3R)-2-methyl-3-(3-methylbut-2-enyl)oxiran-2-yl)-1-oxaspiro[2.5]octan-6-yl (R)-3-methyl-1-(4H-1,2,4-triazol-3-yl)butan-2-ylcarbamate]	< 50	2.4	2.5
CNc1nnc(C[C@@H](NC(=O)O[C@@H]2CC[C@]3(CO3)[C@@H]([C@@]3(C)O[C@@H]3CC=C(C)C)[C@@H]2OC)C(C)C)o1 [Example 33, (3R,4S,5S,6R)-5-methoxy-4-((2R,3R)-2-methyl-3-(3-methylbut-2-enyl)oxiran-2-yl)-1-oxaspiro[2.5]octan-6-yl (R)-3-methyl-1-(5-(methylamino)-1,3,4-oxadiazol-2-yl)butan-2-ylcarbamate]	50 to 500	3.7	1
CO[C@@H]1[C@H](OC(=O)NCC(C)(C)c2nnc[nH]2)CC[C@]2(CO2)[C@H]1[C@@]1(C)O[C@@H]1CC=C(C)C [Example 39, (3R,4S,5S,6R)-5-methoxy-4-((2R,3R)-2-methyl-3-(3-methylbut-2-enyl)oxiran-2-yl)-1-oxaspiro[2.5]octan-6-yl 2-methyl-2-(4H-1,2,4-triazol-3-yl)propylcarbamate]	50 to 500	3.4	7.6
CO[C@@H]1[C@H](OC(=O)N[C@H](c2cnn(C[C@@H]3CCN(C)C3)c2)C(C)C)CC[C@]2(CO2)[C@H]1[C@@]1(C)O[C@@H]1CC=C(C)C [Example 23, (3R,4S,5S,6R)-5-methoxy-4-((2R,3R)-2-methyl-3-(3-methylbut-2-enyl)oxiran-2-yl)-1-oxaspiro[2.5]octan-6-yl (S)-2-methyl-1-(1-(((R)-1-methylpyrrolidin-3-yl)methyl)-1H-pyrazol-4-yl)propylcarbamate]	50 to 500	5.1	–
CO[C@@H]1[C@H](OC(=O)N(C)[C@H](c2cn(CC(C)C)cn2)C(C)C)CC[C@]2(CO2)[C@H]1[C@@]1(C)O[C@@H]1CC=C(C)C [Example 40, (3R,4S,5S,6R)-5-methoxy-4-((2R,3R)-2-methyl-3-(3-methylbut-2-enyl)oxiran-2-yl)-1-oxaspiro[2.5]octan-6-yl ((S)-1-(1-isobutyl-1H-imidazol-4-yl)-2-methylpropyl)(methyl)carbamate]	50 to 500	2.3	–
CO[C@@H]1[C@H](OC(=O)N[C@H](c2cn(C[C@@H]3CCN(CC(F)F)C3)cn2)C(C)C)CC[C@]2(CO2)[C@H]1[C@@]1(C)O[C@@H]1CC=C(C)C [Example 19, (3R,4S,5S,6R)-5-methoxy-4-((2R,3R)-2-methyl-3-(3-methylbut-2-enyl)oxiran-2-yl)-1-oxaspiro[2.5]octan-6-yl (S)-1-(1-(((R)-1-(2,2-difluoroethyl)pyrrolidin-3-yl)methyl)-1H-imidazol-4-yl)-2-methylpropylcarbamate]	50 to 500	1.9	–
CO[C@@H]1[C@H](OC(=O)N[C@H](c2cn(C[C@@H]3CCCN3C)cn2)C(C)C)CC[C@]2(CO2)[C@H]1[C@@]1(C)O[C@@H]1CC=C(C)C [Example 14, (3R,4S,5S,6R)-5-methoxy-4-((2R,3R)-2-methyl-3-(3-methylbut-2-enyl)oxiran-2-yl)-1-oxaspiro[2.5]octan-6-yl (S)-2-methyl-1-(1-(((S)-1-methylpyrrolidin-2-yl)methyl)-1H-imidazol-4-yl)propylcarbamate formate]	< 50	5.8	10.3
CO[C@@H]1[C@H](OC(=O)N[C@H](c2cn(C[C@H]3CCN(C)C3)c(C)n2)C(C)C)CC[C@]2(CO2)[C@H]1[C@@]1(C)O[C@@H]1CC=C(C)C [Example 24, (3R,4S,5S,6R)-5-methoxy-4-((2R,3R)-2-methyl-3-(3-methylbut-2-enyl)oxiran-2-yl)-1-oxaspiro[2.5]octan-6-yl (S)-2-methyl-1-(2-methyl-1-(((S)-1-methylpyrrolidin-3-yl)methyl)-1H-imidazol-4-yl)propylcarbamate]	50 to 500	8.2	–
CO[C@@H]1[C@H](OC(=O)N[C@@H](Cc2nnc(N)s2)C(C)C)CC[C@]2(CO2)[C@H]1[C@@]1(C)O[C@@H]1CC=C(C)C [Example 37, (3R,4S,5S,6R)-5-methoxy-4-((2R,3R)-2-methyl-3-(3-methylbut-2-enyl)oxiran-2-yl)-1-oxaspiro[2.5]octan-6-yl (S)-1-(5-amino-1,3,4-thiadiazol-2-yl)-3-methylbutan-2-ylcarbamate]	50 to 500	2.5	–
CNc1nnc([C@H](NC(=O)O[C@@H]2CC[C@]3(CO3)[C@@H]([C@@]3(C)O[C@@H]3CC=C(C)C)[C@@H]2OC)C(C)C)s1 [Example 7, (3R,4S,5S,6R)-5-methoxy-4-((2R,3R)-2-methyl-3-(3-methylbut-2-enyl)oxiran-2-yl)-1-oxaspiro[2.5]octan-6-yl (R)-2-methyl-1-(5-(methylamino)-1,3,4-thiadiazol-2-yl)propylcarbamate]	< 50	1.8	–
CO[C@@H]1[C@H](OC(=O)N[C@H](c2c[nH]nn2)C(C)C)CC[C@]2(CO2)[C@H]1[C@@]1(C)O[C@@H]1CC=C(C)C [Example 21, (3R,4S,5S,6R)-5-methoxy-4-((2R,3R)-2-methyl-3-(3-methylbut-2-enyl)oxiran-2-yl)-1-oxaspiro[2.5]octan-6-yl (S)-2-methyl-1-(1H-1,2,3-triazol-4-yl)propylcarbamate]	< 50	–	–
